Type in all cases: cell-based, human
Experiment [1] relates to CD24 cell surface expression in MCF7 breast cancer cells. Briefly: CD24 flow cytometry analysis in MCF7 cells. As to conditions: MCF7, 10 or 20 μM bestatin vs DMSO (FIG. 7D). The protocol: (§1) Flow Cytometry Analysis: For cell surface protein staining, 1×10^5-1×10^6 cells were first incubated with Fc receptor blocking solution, Human TruStain FcX™ (BioLegend, Cat #422301) for 10 minutes at room temperature. Cells were washed once in FACS buffer (1×PBS, 1.0% bovine serum albumin (BSA) (Sigma) and 0.2% sodium azide (Sigma), and then incubated with antibodies (given below) for 30 minutes at 4° C. in the dark. Cells were also stained with 7-AAD (Biolegend, Cat #420404) for dead cell exclusion, and flow cytometry analysis was performed using a Bio-Rad ZE5 Cell Analyzer. Following antibodies used in this study (all antibodies were used at 1:50 dilution unless otherwise noted): APC anti-human CD24 (BioLegend, Cat #311118, clone ML5), PE anti-human CD24 (eBioscience, Cat #12-0247-42, clone SN3), APC anti-human CD47 (BioLegend, Cat #323124, clone CC2C6), APC anti-human § 2-microglobulin (BioLegend, Cat #395711, clone A17082A), PE anti-human HLA-A2 (MHC-class I) (BioLegend, Cat #343305, clone BB7.2), APC anti-human CD11b (BioLegend, Cat #982604, clone ICRF44), APC anti-mouse F4/80 antibody (BioLegend, Cat #123116, clone BM8), APC-streptavidin (Thermo Fisher Scientific, Cat #SA1005, 1:100 dilution), PE anti-Calreticulin (Invitrogen, Catalog #MA5-15382, 1:200 dilution). […]
Background: In flow cytometry, cells or beads pass a laser one at a time.

Experiment [2] deals with OVCAR8 cells. Briefly: Cell viability assay (PrestoBlue) in OVCAR8 cells. As to conditions: OVCAR8, 5, 10 or 20 μM bestatin vs DMSO (FIG. 6F). The protocol: Cell Viability Assay: OVCAR8 cells were transduced with a lentivirus expressing non-silencing (NS) or CD24 shRNA (Table 1) and analyzed for cell viability using PrestoBlue Cell Viability Reagent (Invitrogen™, Cat #A13261) as per the manufacturer's instructions, and relative cell growth was determined. […]

Experiment [3] relates to SKOV3 cells. Briefly: In vitro phagocytosis assay of SKOV3 cells by PBMC-derived M2 macrophages. As to conditions: bestatin 20 μM, tosedostat 20 μM, vs DMSO.
Experiment [4] deals with CD24 cell surface expression in SKOV3 cells. Briefly: CD24 flow cytometry analysis in SKOV3 cells. As to conditions: 3 days, bestatin 10 or 20 μM, tosedostat 5 or 10 μM, vs DMSO. The procedure:
as §1, with “FcXTM” for “FcX™”, “[…]),” for “A17082A),”

For the compound `CC(C)C[C@H](NC(=O)[C@@H](O)[C@H](N)Cc1ccccc1)C(=O)O` [bestatin], in experiment [1], the “CD24 cell surface expression (MFI)” value was “did not decrease”. For the same compound, in experiment [2], the cell viability result is “no effect”. Further, the macrophage-mediated phagocytosis result in experiment [3] is “substantially increased”.

On to `CC(C)C[C@@H](C(=O)N[C@H](C(=O)OC1CCCC1)c1ccccc1)[C@H](O)C(=O)NO` [tosedostat], for which the “CD24 cell surface expression (MFI)” value in experiment [4] is “reduced”. In experiment [3], the macrophage-mediated phagocytosis entry is on record as “increased”.
